Columns and labels:
AR [1] = target: T1, AR (Homo sapiens, UniProt P10275); experiment: FRET-based AR conformation change reporter (CARY) in LNCaP C4 prostate cells; type: cell-based; design: Full length AR with cyan fluorescent protein (CFP) or yellow fluorescent protein (YFP) fused to either end (CARY); expressed in transfected cells; conditions: LNCaP C4 prostate cancer cells
T1 sequence (P10275 1-920): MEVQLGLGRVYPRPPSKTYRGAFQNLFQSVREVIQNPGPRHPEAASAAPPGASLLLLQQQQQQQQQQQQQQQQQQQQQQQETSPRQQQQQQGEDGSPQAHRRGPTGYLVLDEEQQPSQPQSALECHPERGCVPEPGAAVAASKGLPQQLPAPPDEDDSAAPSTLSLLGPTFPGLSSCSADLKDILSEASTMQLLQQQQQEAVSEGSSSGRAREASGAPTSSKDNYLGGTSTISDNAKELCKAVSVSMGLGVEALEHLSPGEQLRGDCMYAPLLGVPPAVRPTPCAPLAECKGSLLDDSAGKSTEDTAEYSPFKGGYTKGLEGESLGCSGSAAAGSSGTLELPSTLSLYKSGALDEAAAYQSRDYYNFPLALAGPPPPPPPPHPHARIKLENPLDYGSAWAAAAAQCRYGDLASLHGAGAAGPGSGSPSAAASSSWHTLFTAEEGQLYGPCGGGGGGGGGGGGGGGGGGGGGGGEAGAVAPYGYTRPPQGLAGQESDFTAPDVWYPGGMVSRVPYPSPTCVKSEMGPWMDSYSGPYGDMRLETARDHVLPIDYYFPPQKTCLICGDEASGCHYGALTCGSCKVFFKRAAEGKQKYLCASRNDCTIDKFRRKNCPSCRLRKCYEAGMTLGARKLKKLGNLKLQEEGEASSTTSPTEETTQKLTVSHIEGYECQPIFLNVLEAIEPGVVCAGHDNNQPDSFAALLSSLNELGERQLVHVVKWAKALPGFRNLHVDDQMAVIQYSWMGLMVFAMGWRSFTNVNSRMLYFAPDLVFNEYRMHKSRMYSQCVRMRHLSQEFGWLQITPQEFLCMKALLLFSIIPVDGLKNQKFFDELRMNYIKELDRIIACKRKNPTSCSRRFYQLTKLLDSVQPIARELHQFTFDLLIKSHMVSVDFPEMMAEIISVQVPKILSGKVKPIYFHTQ
Description: Creation of stable C-AR-Y reporter cell lines. Cell lines listed above were either transfected with a plasmid or a virus containing the CFP-AR-YFP construct preceding an IRES and hygromycin resistance gene and clonal stable cell lines selected. Qualification criteria for the transfected cell lines were described by Jones et al, ACS Chem Biol, 3(7):412-8 (2008).
Screen for AR-modulators. Screening was performed essentially as described by Jones et al, ACS Chem Biol, 3(7):412-8 (2008). Briefly, C-AR-Y reporter GTI-7 were transferred to 96 well plates and treated with library compounds for 24 hours. […] The compounds to be tested were from the NCI/DTP Open Chemical Repository's Approved Oncology Drugs Set II, Diversity Set II and Mechanistic Set. […] After 24 hours, medium was aspirated and FRET was measured as previously described using a monochromator-based fluorescence plate reader (M1000, Tecan, Inc.). Jones et al, ACS Chem Biol, 3(7):412-8 (2008). […]
In order to identify potential cell-type selective AR modulators, the FRET-based assay of AR conformation change was utilized. […] This produces an accurate and quantifiable read-out of AR activity. […] Candidate hits were then further evaluated by dose response. […] In addition to FRET, AR transcriptional activity was also assessed in several cell lines by transfecting cells with a luciferase reporter driven by the human PSA promoter. […]

AR [2] = experiment: Immunohistochemistry of AR in spinal cord and muscle tissue; type: in vivo, rat; conditions: rats, 100 mg/kg per day, four weeks
AR [3] = target: T1, AR; experiment: Androgen-responsive luciferase reporter assay in ReNcell CX neuronal cells; type: cell-based; design: endogenous in cells; host or cells: ReNcell CX; conditions: FIG. 2B
Excerpt: Luciferase Reporter Assay. Cells were transfected using Lipofectamine Plus (Invitrogen) with a normalization plasmid (pRL-SV40, Promega) and an androgen responsive plasmid (MMTV-luciferase or PSA-luciferase) as described in Jones et al, ACS Chem Biol, 3(7):412-8 (2008), and, where indicated, with an shRNA plasmid targeting FOXM1 (adapted for mouse FOXM1 sequence targeting) a scrambled control shRNA plasmid, or ARQ24 or ARQ65 plasmids. Christensen et al, PLoS One, 8(1):e54556 (2013). The following day, cells and drugs were distributed to 96-well plates. 24 hours later, luciferase activity was assessed by a dual luciferase assay kit (Promega) on the Tecan plate reader. Samples were run in quadruplicates and a Student's t test was performed to determine significance, where p<0.05 was considered significant.
The ability of thiostrepton to inhibit AR activity in additional neuronal cells, including ReNcell CX cells PC12 cells, and in rat L6 skeletal muscle cells was examined (FIG. 2B). Donato et al, BMC Neurosci, 8:36 (2007); Yaffe, Proc Natl Acad Sci USA, 61(2):477-83 (1968).

SMILES	AR inhibitor activity in words (AR [1]; listed as Siomycin A)	AR inhibitor activity in words (AR [1]; listed as siomycin)	AR expression in striated muscle tissue nuclei (IHC) (AR [2])	AR levels in spinal cord neurons (IHC) (AR [2])	inhibition of AR activity (luciferase) (AR [3])
C=C(NC(=O)C(=C)NC(=O)c1csc(C2=N[C@@H]3c4csc(n4)[C@H]4NC(=O)c5csc(n5)[C@H]([C@](C)(O)[C@@H](C)O)NC(=O)[C@H]5CSC(=N5)/C(=C/C)NC(=O)[C@H]([C@@H](C)O)NC(=O)c5csc(n5)[C@]3(CC2)NC(=O)[C@H](C)NC(=O)C(=C)NC(=O)C(=C)NC(=O)[C@H](C(C)C)N[C@@H]2C=Cc3c([C@H](C)O)cc(nc3[C@H]2O)C(=O)O[C@@H]4C)n1)C(N)=O [NSC285116, siomycin A]	little to no activity	not as sensitive	–	–	–
C=C(NC(=O)C(=C)NC(=O)c1csc(C2=N[C@@H]3c4csc(n4)[C@H]4NC(=O)c5csc(n5)[C@H]([C@](C)(O)[C@@H](C)O)NC(=O)[C@H]5CSC(=N5)/C(=C/C)NC(=O)[C@H]([C@@H](C)O)NC(=O)c5csc(n5)[C@]3(CC2)NC(=O)[C@H](C)NC(=O)C(=C)NC(=O)[C@H](C)NC(=O)[C@H]([C@@H](C)CC)N[C@@H]2C=Cc3c([C@H](C)O)cc(nc3[C@H]2O)C(=O)O[C@@H]4C)n1)C(N)=O [thiostrepton]	–	–	not affected	not affected	inhibited AR activity
